Reference: PMC7393680 (Organic & biomolecular chemistry, 2020)
Read-outs that look alike come from different tables or passages of the source.

What was measured:
BPTF [1] = conditions: prior lead inhibitor; cited from earlier work
BPTF [2] = conditions: ITC, cited from earlier work
5FW-BPTF bromodomain = 5FW-BPTF bromodomain (Homo sapiens, UniProt Q12830); assay: SPR, 5FW-labeled His9-BPTF on NTA chip, steady-state; assay type: binding
[3] = molecular target: 5FW-BPTF bromodomain (His9-tagged, 5-fluorotryptophan-labelled); assay: NMR titration

## COC(=O)c1cccc(NC(=O)NC2CCN(c3ccnc(Nc4ccc(F)cc4)n3)C2)c1 (centres unmarked) [AU1]
BPTF [1]
  Kd: 2800 nM

## CN(C)CCCOc1ccc(-c2cc(NCCCn3cccn3)nc(S(C)(=O)=O)n2)cc1 [compound 2, TP-238]
BPTF [2]; BPTF vs CECR2
  fold weaker affinity for BPTF over CECR2: 10 fold
BPTF [2]; read-out: Reported BPTF Kd, unlabeled BPTF, thesgc.org
  Kd: 120 nM
5FW-BPTF bromodomain
  Kd: 250 ± 20 nM

## Histone variant H2AZ.1 K4ac,K11ac peptide
[3]
  Kd: 720000 nM
